The values that follow come from patent publication US7510845B2, “Assay employing G protein-coupled receptor expressed in dorsal root ganglia” (California Institute of Technology, priority 2000, dated 2009).

“Also recorded” adds a separate entry of the source. Ends that are not written are not given here.

Test [1] concerns the target T1, MRGA1 (Mus musculus, UniProt Q91WW5).
T1 construct: cDNAs encoding eight full-length variants of Mrg receptors (mMrgA1-8) are provided; expressed in transfected cells; host or cells: HEK293-Galpha15 (A1) or HEK293 lacking Galpha15 (A4), transient transfection with FuGENE 6
T1 sequence (Q91WW5 1-304): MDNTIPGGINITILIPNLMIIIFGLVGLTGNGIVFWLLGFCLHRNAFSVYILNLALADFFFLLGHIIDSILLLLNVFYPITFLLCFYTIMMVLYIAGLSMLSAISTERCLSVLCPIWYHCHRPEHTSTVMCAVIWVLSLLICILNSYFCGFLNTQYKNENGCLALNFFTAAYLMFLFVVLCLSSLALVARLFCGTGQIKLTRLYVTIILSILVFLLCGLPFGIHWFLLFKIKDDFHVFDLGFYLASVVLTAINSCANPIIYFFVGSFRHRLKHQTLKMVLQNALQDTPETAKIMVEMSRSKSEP
As to the kind of experiment: Intracellular Ca2+ release assay (Fura-2), MRGA1-GFP in HEK-Gα15 cells. It is filed as cell-based. The following applies: for Calcium response of MRGA1-expressing cells to ligand: HEK-Gα15 cells, ligand 1 μM; for Activation of MrgA1 in dose-response experiments: HEK cells expressing Gα15. Here is the method:
(§1) To identify ligands for the Mrg receptors, selected MrgA genes were tested in a calcium release assay. MrgA genes, including MrgA1 and MrgA4, were cloned into a eukaryotic expression vector and transfected into human embryonic kidney (HEK) 293 cells. HEK-293 cells were obtained from the ATCC and cultured in DMEM supplemented with 10% fetal bovine serum. An HEK293-Gα15 cell line stably expressing Gα15 was provided by Aurora Biosciences Corporation and grown on Matrigel™ (growth factor reduced Matrigel, Becton Dickinson, diluted 1:200 with serum-free DMEM)-coated flasks and maintained at 37° C. in DMEM (GibcoBRL) supplemented with 10% heat-inactivated fetal bovine serum, 2 mM L-glutamine, 0.1 mM non-essential amino acids, 1 mM sodium pyruvate, 25 mM HEPES and 3 μg/ml blastcidin-S. For transfection, cells were seeded on Matrigel-coated 35 mm glass-bottom dishes (Bioptech Inc., Butler, Pa.). After 16-24 hr, cells were transfected using FuGENE 6 (Roche).
To increase the sensitivity of the calcium release assay, in some experiments the MRGA-GFP fusion proteins were expressed in HEK 293 cells modified to express Gα15, which couples GPCRs to a signal transduction pathway leading to the release of intracellular free Ca^2+ (Offermann and Simon J Biol Chem 270: 15175-80 (1995)). This calcium release can be monitored ratiometrically using Fura-2 as a fluorescent indicator dye (Tsien et al. Cell Calcium 6: 145-57 (1985)) (FIGS. 11A-C). This heterologous expression system has been previously used to identify ligands for taste receptors (Chandrashekar et al. Cell 100: 703-11 (2000)).
(§2) Briefly, transfected cells were washed once in Hank's balanced salt solution with 11 mM D-glucose and 10 mM HEPES, pH 7.4 (assay buffer) and loaded with 2 μM Fura-2 AM (Molecular Probes) at room temperature for 90 min, with rotation. Loaded cells were washed twice with assay buffer and placed on a micro-perfusion chamber (Bioptech). The chamber was mounted on top of a Olympus IMT2 inverted microscope, and imaged with an Olympus DPlanApo 40× oil immersion objective lens. Samples were illuminated by a 75 W xenon bulb, and a computer-controlled filter changer (Lambda-10; Shutter Instruments) was used to switch the excitation wavelength. A cooled CCD camera (Photometric) was used in detecting fluorescence. GFP-positive cells within a field were identified using an excitation wavelength of 400 nm, a dichroic 505 nm long-pass filter and an emitter bandpass of 535 nm (Chroma Technology). In the same field, calcium measurements were performed at an excitation wavelength of 340 nm and 380 nm, and an emission wavelength of 510 nm. Agonists were diluted in assay buffer and solution changes accomplished by micro-perfusion pump (Bioptech). Fura-2 fluorescence signals (340 nm, 380 nm and the 340/380 ratio) originating from GFP-positive cells were continuously monitored at 0.4- or 1-second intervals and collected using Axon Imaging Workbench 4.0 software (Axon). Instrument calibration was carried out with standard calcium solutions (Molecular probes) in glass bottom dishes (MatTek Corp.).

Test [2] addresses T1, MRGA1. Briefly: Intracellular Ca2+ release assay, MRGA1 in HEK cells lacking Gα15. The class given is cell-based. Particulars: ligand 1 μM. Here is the method: as §1, with “(Roche). Transfection efficiencies were estimated by visualization of GFP fused to the C-terminus of MrgA1 and A4, and were typically >60%. Fusing GFP to the C-termini of the MrgA coding sequences additionally allowed for visual confirmation of the intracellular distribution of the receptors and their membrane integration in the transfected cells (FIG. 11D).” for “(Roche).”
as §2, with “Corp.). […]” for “Corp.).”

Test [3] deals with chronic pain models, including neuropathic pain. The following applies: intrathecal injection; several chronic pain models; cited from earlier work.
A further test concerns MAS1. Briefly: Intracellular Ca2+ release assay (Fura-2), MAS1 in HEK-Gα15 cells. The class given is cell-based. The following applies: for Activation of MAS1: HEK-Gα15 cells.
The target of test [4] is T2, MRGA4 (Mus musculus, UniProt Q91WW2, A204G).
T2 construct: cDNAs encoding eight full-length variants of Mrg receptors (mMrgA1-8) are provided; expressed in transfected cells; host or cells: HEK293-Galpha15 (A2) or HEK293 lacking Galpha15 (A5), transient transfection with FuGENE 6
T2 sequence (Q91WW2 9-313 A204G limits assumed): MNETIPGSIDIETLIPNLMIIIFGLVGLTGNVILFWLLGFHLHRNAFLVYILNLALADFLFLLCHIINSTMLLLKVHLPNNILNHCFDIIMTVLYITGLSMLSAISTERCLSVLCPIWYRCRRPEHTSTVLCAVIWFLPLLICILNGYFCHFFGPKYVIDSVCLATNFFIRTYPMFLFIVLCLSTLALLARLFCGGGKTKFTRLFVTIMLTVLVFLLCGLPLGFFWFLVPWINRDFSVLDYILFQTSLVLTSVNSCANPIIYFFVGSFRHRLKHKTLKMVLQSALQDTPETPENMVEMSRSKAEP
Briefly: Intracellular Ca2+ release assay, MRGA4 in HEK cells lacking Gα15. The following applies: ligand 1 μM. The class given is cell-based. As to the method: as §1, with “(Roche). Transfection efficiencies were estimated by visualization of GFP fused to the C-terminus of MrgA1 and A4, and were typically >60%. Fusing GFP to the C-termini of the MrgA coding sequences additionally allowed for visual confirmation of the intracellular distribution of the receptors and their membrane integration in the transfected cells (FIG. 11D).” for “(Roche).”
as §2, with “Corp.). […]” for “Corp.).”

In test [5] the target is T2, MRGA4. As to the kind of experiment: Intracellular Ca2+ release assay (Fura-2), MRGA4-GFP in HEK-Gα15 cells. It is filed as cell-based. The following applies: HEK cells expressing Gα15. As to the method:
To identify ligands for the Mrg receptors, selected MrgA genes were tested in a calcium release assay. MrgA genes, including MrgA1 and MrgA4, were cloned into a eukaryotic expression vector and transfected into human embryonic kidney (HEK) 293 cells. HEK-293 cells were obtained from the ATCC and cultured in DMEM supplemented with 10% fetal bovine serum. […]
To increase the sensitivity of the calcium release assay, in some experiments the MRGA-GFP fusion proteins were expressed in HEK 293 cells modified to express Gα15, which couples GPCRs to a signal transduction pathway leading to the release of intracellular free Ca^2+ (Offermann and Simon J Biol Chem 270: 15175-80 (1995)). This calcium release can be monitored ratiometrically using Fura-2 as a fluorescent indicator dye (Tsien et al. Cell Calcium 6: 145-57 (1985)) (FIGS. 11A-C). […]
Briefly, transfected cells were washed once in Hank's balanced salt solution with 11 mM D-glucose and 10 mM HEPES, pH 7.4 (assay buffer) and loaded with 2 μM Fura-2 AM (Molecular Probes) at room temperature for 90 min, with rotation. […] A cooled CCD camera (Photometric) was used in detecting fluorescence. […] Fura-2 fluorescence signals (340 nm, 380 nm and the 340/380 ratio) originating from GFP-positive cells were continuously monitored at 0.4- or 1-second intervals and collected using Axon Imaging Workbench 4.0 software (Axon). […]

As for `CCCCC/C=C\C/C=C\C/C=C\C/C=C\CCCC(=O)O` [Arachidonic Acid], the “Calcium response of MRGA1-expressing cells to ligand” value at MRGA1 [1] is on record as “only very weakly activated”.

Turning to `CCCCC[C@H](O)/C=C/[C@H]1[C@H](O)CC(=O)[C@@H]1CCCCCCC(=O)O` [Prostaglandin-E1], the “Calcium response of MRGA1-expressing cells to ligand” value at MRGA1 [1] is reported as “only very weakly activated”.

Consider AGEGLNSQFWSLAAPQRF-NH2 [NPAF], for which the “Calcium response of MRGA1-expressing cells to ligand” value on MRGA1 [2] was “no response”. Further, the Antinociceptive effect entry in test [3] is on record as “long-lasting antinociceptive effects”. Moreover, in the test on MAS1 (HEK cells, RF-amide ligands, read-out: Relative efficacy of activation of MAS1), the EC50 was above 1000 nM. The “Activation of MAS1” value in the test with MAS1 is recorded as “did not respond well”. Further, at MRGA4 [4], the “Calcium response of MRGA4-expressing cells to ligand” value is “respond”. Also, on MRGA1 [1], the “Activation of MrgA1 in dose-response experiments” value (shortened to “Activation of MrgA1”) is on record as “much less effective” and the “Calcium response of MRGA1-expressing cells to ligand” value is recorded as “significantly lower”.

As for “Angiotensin I: peptide hormone previously reported to activate MAS1 (DRVYIHPFHL; Angiotensin-1; UniProt P01019 25-34, looked up)”, the “Activation of MAS1” value in the test on MAS1 was “No response was detected”.

For the compound “Angiotensin II: peptide hormone previously reported to activate MAS1 (DRVYIHPF; Angiotensin-2; UniProt P01019 25-32, looked up)”, the “Activation of MAS1” value in the test on MAS1 is on record as “No response was detected”.

For “CGRP-II: neuropeptide, calcitonin gene-related peptide”, the “Calcium response of MRGA1-expressing cells to ligand” value with MRGA1 [2] is on record as “considerably diminished”; in the test with MRGA1 [1], “some level of activation; also recorded: strongest responses”. Moreover, the “Calcium response of MRGA4-expressing cells to ligand” value with MRGA4 [4] is reported as “considerably diminished”.

Regarding NPY: neuropeptide, the “Calcium response of MRGA1-expressing cells to ligand” value is listed as “lost completely” in the test with MRGA1 [2] and “some level of activation; also recorded: strongest responses” with MRGA1 [1]. Further, in the test with MRGA4 [4], the “Calcium response of MRGA4-expressing cells to ligand” value was “lost completely”.

In the case of Phe-Met-Arg-Phe-amide [FMRFamide], the “Calcium response of MRGA1-expressing cells to ligand” value is recorded as “most efficient responses” in the test with MRGA1 [1] and “strongest responses” with MRGA1 [1] (listed as FMRF).

As for “RFRP-1: RFamide ligand produced from a different precursor (MPHSFANLPLRF; ends and bridges not checked; UniProt Q9HCQ7 81-92, looked up)”, the “Activation of MrgA4 in dose-response experiments” value with MRGA4 [5] is “Neither receptor showed strong activation”. In the test with MRGA1 [1], the “Activation of MrgA1” value is reported as “Neither receptor showed strong activation”.

On to “RFRP-2: RFamide ligand produced from a different precursor (SAGATANLPLRS; ends and bridges not checked; UniProt Q9HCQ7 101-112, looked up)”, for which, in the test with MRGA4 [5], the “Activation of MrgA4 in dose-response experiments” value is on record as “Neither receptor showed strong activation”. Besides, the “Activation of MrgA1” value with MRGA1 [1] is on record as “Neither receptor showed strong activation”.

As to “SYSMEHFRWGKPVGKKRRPVKVYPNGAEDESAEAFPLEF [ACTH]”, the results for the “Calcium response of MRGA1-expressing cells to ligand” value at MRGA1 [2] and at MRGA1 [1] were “considerably diminished” and “some level of activation; also recorded: strongest responses”, respectively. In the test with MAS1, the “Activation of MAS1” value is on record as “Nor did MAS1 respond”. Moreover, on MRGA4 [4], the “Calcium response of MRGA4-expressing cells to ligand” value is listed as “considerably diminished”.

With neurokinin A: peptide hormone, the “Calcium response of MRGA1-expressing cells to ligand” value with MRGA1 [1] was “did not activate”.

Regarding neurokinin B: peptide hormone, the “Calcium response of MRGA1-expressing cells to ligand” value in the test with MRGA1 [1] is listed as “did not activate”.

Regarding “schistoFLRF: RFamide ligand, SEQ ID NO: 115 (PDVDHVFLRF; ends and bridges not checked)”, the “Calcium response of MRGA1-expressing cells to ligand” value with MRGA1 [1] was “weakly activated”.
